# Reference: US6642227B2, “Inhibitors of c-Jun N-terminal kinases (JNK) and other protein kinases” (Vertex Pharmaceuticals Incorporated, priority 2001, dated 2003)
# Legend:
# Format in all cases: biochemical
# activated JNK3 = biological target: T1, activated JNK3 (Homo sapiens, UniProt P53779); experiment: JNK inhibition assay (spectrophotometric coupled-enzyme assay)
# T1 construct: One such construct encodes amino acid residues Ser40-Glu402 of JNK3α1 and is preceded by Met and Gly residues; Met-Gly dipeptide (initiator Met plus Gly added for the NcoI site) (N); made in house; host or cells: E. coli BL21 (DE3)
# Text: A BLAST search of the EST database using the published JNK3α1 cDNA as a query identified an EST clone (#632588) that contained the entire coding sequence for human JNK3α1. Polymerase chain reactions (PCR) using pfu polymerase (Strategene) were used to introduce restriction sites into the cDNA for cloning into the pET-15B expression vector at the NcoI and BamHI sites. The protein was expressed in E. coli. Due to the poor solubility of the expressed full-length protein (Met 1-Gln 422), an N-terminally truncated protein starting at Ser residue at position 40 (Ser 40) was produced. This truncation corresponds to Ser 2 of JNK1 and JNK2 proteins, and is preceded by a methionine (initiation) and a glycine residue. The glycine residue was added in order to introduce an NcoI site for cloning into the expression vector. In addition, systematic C-terminal truncations were performed by PCR to identify a construct that give rise to diffraction-quality crystals. One such construct encodes amino acid residues Ser40-Glu402 of JNK3α1 and is preceded by Met and Gly residues.
# The construct was prepared by PCR using deoxyoligonucleotides: 5′ […] 3′ (forward primer with initiation codon underlined)(SEQ ID NO:1) and 5′ […] 3′ (reverse primer with stop codon underlined)(SEQ ID NO:2) as primers and was confirmed by DNA sequencing.
# E.coli strain BL21 (DE3) (Novagen) was transformed with the JNK3 expression construct and grown at 30° C. in LB supplemented with 100 μg/ml carbenicillin in shaker flasks until the cells were in log phase (OD600˜0.8). Isopropylthio-β-D-[…] (IPTG) was added to a final concentration of 0.8 mM and the cells were harvested 2 hours later by centrifugation.
# E. coli cell paste containing JNK3 was resuspended in 10 volumes/g lysis buffer (50 mM HEPES, pH 7.2, containing 10% glycerol (v/v), 100 mM NaCl, 2 mM DTT, 0.1 mM PMSF, 2 μg/ml Pepstatin, lug/ml each of E-64 and Leupeptin). Cells were lysed on ice using a microfluidizer and centrifuged at 100,000×g for 30 min at 4° C. The 100,000×g supernatant was diluted 1:5 with Buffer A (20 mM HEPES, pH 7.0, 10% glycerol (v/v), 2 mM DTT) and purified by SP-Sepharose (Pharmacia) cation-exchange chromatography (column dimensions: 2.6×20 cm) at 4° C. The resin was washed with 5 column volumes of Buffer A, followed by 5 column volumes of Buffer A containing 50 mM NaCl. Bound JNK3 was eluted with a 7.5 column volume linear gradient of 50-300 mM NaCl. JNK3 eluted between 150-200 mM NaCl.
# Five mg of JNK3 was diluted to 0.5 mg/ml in 50 mM HEPES buffer, pH 7.5, containing 100 mM NaCl, 5 mM DTT, 20 mM MgCl2 and 1 mM ATP. GST-MKK7(DD) was added at a molar ratio of 1:2.5 GST-MKK7:JNK3. After incubation for 30 minutes at 25° C., the reaction mixture was concentrated 5-fold by ultrafiltration in a Centriprep-30 (Amicon, Beverly, Mass.), diluted to 10 ml and an additional 1 mM ATP added. This procedure was repeated three times to remove ADP and replenish ATP. The final addition of ATP was 5 mM and the mixture incubated overnight at 4° C.
# The activated JNK3/GST-MKK7(DD) reaction mixture was exchanged into 50 mM HEPES buffer, pH 7.5, containing 5 mM DTT and 5% glycerol (w/v) by dialysis or ultrafiltration. The reaction mixture was adjusted to 1.1 M potassium phosphate, pH 7.5, and purified by hydrophobic interaction chromatography (at 25° C.) using a Rainin Hydropore column. […] Activated JNK3 (i.e. doubly phosphorylated JNK3) was stored at −70° C. at 0.25-1 mg/ml.
# Compounds were assayed for the inhibition of JNK3 by a spectrophotometric coupled-enzyme assay. In this assay, a fixed concentration of activated JNK3 (10 nM) was incubated with various concentrations of a potential inhibitor dissolved in DMSO for 10 minutes at 30° C. in a buffer containing 0.1 M HEPES buffer, pH 7.5, containing 10 mM MgCl2, 2.5 mM phosphoenolpyruvate, 200 μM NADH, 150 μg/mL pyruvate kinase, 50 μg/mL lactate dehydrogenase, and 200 μM EGF receptor peptide. […]
# human Lck kinase = human Lck kinase (UniProt P06239); experiment: Lck inhibition assay (A: radioactivity-based or B: spectrophotometric coupled-enzyme assay); details: read-out: Lck Activity (Ki rating)
# Experimental: The compounds were evaluated as inhibitors of human Lck kinase using either a radioactivity-based assay or spectrophotometric assay.
# The compounds were assayed as inhibitors of full length bovine thymus Lck kinase (from Upstate Biotechnology, cat. no. 14-106) expressed and purified from baculo viral cells. Lck kinase activity was monitored by following the incorporation of ^33p from ATP into the tyrosine of a random poly Glu-Tyr polymer substrate of composition, Glu:Tyr=4:1 (Sigma, cat. no. P-0275). The following were the final concentrations of the assay components: 0.025 M HEPES, pH 7.6, 10 mM MgCl2, 2 mM DTT, 0.25 mg/ml BSA, 10 μM ATP (1-2 μCi ^33P-ATP per reaction), 5 mg/ml poly Glu-Tyr, and 1-2 units of recombinant human […] kinase. In a typical assay, all the reaction components with the exception of ATP were pre-mixed and aliquoted into assay plate wells. Inhibitors dissolved in DMSO were added to the wells to give a final DMSO concentration of 2.5%. The assay plate was incubated at 30 C. for 10 min before initiating the reaction with ^33P-ATP. After 20 min of reaction, the reactions were quenched with 150 μl of 10% trichloroacetic acid (TCA) containing 20 mM Na3PO4. The quenched samples were then transferred to a 96-well filter plate (Whatman, UNI-Filter GF/F Glass Fiber Filter, cat no. 7700-3310) installed on a filter plate vacuum manifold. Filter plates were washed four times with 10% TCA containing 20 mM Na3PO4 and then 4 times with methanol. 200 μl of scintillation fluid was then added to each well. The plates were sealed and the amount of radioactivity associated with the filters was quantified on a TopCount scintillation counter. The radioactivity incorporated was plotted as a function of the inhibitor concentration. The data was fitted to a competitive inhibition kinetics model to get the Ki for the compound.
# (§1) The ADP produced from ATP by the human recombinant Lck kinase-catalyzed phosphorylation of poly Glu-Tyr substrate was quanitified using a coupled enzyme assay (Fox et al (1998) Protein Sci 7, 2249). In this assay one molecule of NADH is oxidised to NAD for every molecule of ADP produced in the kinase reaction. The disappearance of NADH can be conveniently followed at 340 nm.
# (§2) The following were the final concentrations of the assay components: 0.025 M HEPES, pH 7.6, 10 mM MgCl2, 2 mM DTT, 5 mg/ml poly Glu-Tyr, and 50 nM of recombinant human Lck kinase. Final concentrations of the components of the coupled enzyme system were 2.5 mM phosphoenolpyruvate, 200 μM NADH, 30 μg/ml pyruvate kinase and 10 μg/ml lactate dehydrogenase.
# (§3) In a typical assay, all the reaction components with the exception of ATP were pre-mixed and aliquoted into assay plate wells. Inhibitors dissolved in DMSO were added to the wells to give a final DMSO concentration of 2.5%. The assay plate was incubated at 30° C. for 10 min before initiating the reaction with 150 μM ATP. The absorbance change at 340 nm with time, the rate of the reaction, was monitored on a molecular devices plate reader. The data of rate as a function of the inhibitor concentration was fitted to competitive inhibition kinetics model to get the Ki for the compound.
# human Src kinase = biological target: T2, human Src kinase (Homo sapiens, UniProt P12931); experiment: Src inhibition assay (A: radioactivity-based or B: spectrophotometric coupled-enzyme assay); details: assay A or B not specified; inhibitor concentration not given
# T2 construct: full length recombinant human Src kinase; purchased Upstate Biotechnology 14-117; host or cells: baculovirus-infected cells
# Experimental: The compounds were evaluated as inhibitors of human Src kinase using either a radioactivity-based assay or spectrophotometric assay.
# The compounds were assayed as inhibitors of full length recombinant human Src kinase (from Upstate Biotechnology, cat. no. 14-117) expressed and purified from baculo viral cells. Src kinase activity was monitored by following the incorporation of ^33p from ATP into the tyrosine of a random poly Glu-Tyr polymer substrate of composition, Glu:Tyr=4:1 (Sigma, cat. no. P-0275). The following were the final concentrations of the assay components: 0.05 M HEPES, pH 7.6, 10 mM MgCl2, 2 mM DTT, 0.25 mg/ml BSA, 10 μM ATP (1-2 uCi ^33P-ATP per reaction), 5 mg/ml poly Glu-Tyr, and 1-2 units of recombinant human Src kinase. In a typical assay, all the reaction components with the exception of ATP were pre-mixed and aliquoted into assay plate wells.
# Inhibitors dissolved in DMSO were added to the wells to give a final DMSO concentration of 2.5%. The assay plate was incubated at 30° C. for 10 min before initiating the reaction with ^33P-ATP. After 20 min of reaction, the reactions were quenched with 150 μl of 10% trichloroacetic acid (TCA) containing 20 mM Na3PO4. The quenched samples were then transferred to a 96-well filter plate (Whatman, UNI-Filter GF/F Glass Fiber Filter, cat no. 7700-3310) installed on a filter plate vacuum manifold. Filter plates were washed four times with 10% TCA containing 20 mM Na3PO4 and then 4 times with methanol. 200 μl of scintillation fluid was then added to each well. The plates were sealed and the amount of radioactivity associated with the filters was quantified on a TopCount scintillation counter. The radioactivity incorporated was plotted as a function of the inhibitor concentration. The data was fitted to a competitive inhibition kinetics model to get the Ki for the compound.
# as §1, with “Src” for “Lck”
# as §2, with “DTT, 0.25” for “DTT, 5”, “and 25” for “and 50”, “human Src” for “human Lck”
# as §3, with “30” for “30°”, “100” for “150”, “compettive” for “competitive”
# T1 sequence (P53779 40-402): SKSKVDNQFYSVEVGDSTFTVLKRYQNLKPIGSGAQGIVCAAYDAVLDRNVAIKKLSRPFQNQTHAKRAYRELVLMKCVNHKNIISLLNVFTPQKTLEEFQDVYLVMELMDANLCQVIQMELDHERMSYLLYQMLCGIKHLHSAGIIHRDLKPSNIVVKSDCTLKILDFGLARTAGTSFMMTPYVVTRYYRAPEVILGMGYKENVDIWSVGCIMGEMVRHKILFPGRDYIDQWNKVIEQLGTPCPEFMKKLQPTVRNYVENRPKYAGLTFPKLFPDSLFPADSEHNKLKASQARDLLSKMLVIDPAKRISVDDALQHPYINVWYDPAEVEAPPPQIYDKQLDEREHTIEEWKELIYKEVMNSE
# T2 sequence (P12931 whole entry): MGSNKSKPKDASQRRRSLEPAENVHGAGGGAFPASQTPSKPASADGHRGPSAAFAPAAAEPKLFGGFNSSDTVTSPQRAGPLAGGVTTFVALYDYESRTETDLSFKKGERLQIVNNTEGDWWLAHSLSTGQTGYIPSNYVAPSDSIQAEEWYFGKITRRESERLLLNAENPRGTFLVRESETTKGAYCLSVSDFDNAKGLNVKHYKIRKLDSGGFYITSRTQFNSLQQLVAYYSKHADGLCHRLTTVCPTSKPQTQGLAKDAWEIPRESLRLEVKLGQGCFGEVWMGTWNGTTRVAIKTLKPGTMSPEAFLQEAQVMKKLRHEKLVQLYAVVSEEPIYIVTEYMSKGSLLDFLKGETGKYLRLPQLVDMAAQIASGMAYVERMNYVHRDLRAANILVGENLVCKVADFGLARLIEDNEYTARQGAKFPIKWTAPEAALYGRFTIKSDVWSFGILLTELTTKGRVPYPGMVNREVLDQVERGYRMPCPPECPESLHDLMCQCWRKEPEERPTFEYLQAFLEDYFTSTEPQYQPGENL
SMILES,"Ki (activated JNK3; activated JNK3 10 nM, 10 μM ATP, 30° C., read-out: JNK3 Activity (Ki class A-C)) [nM]",Ki (human Lck kinase) [nM],Src Activity (percent inhibition class D-F) (human Src kinase),JNK3 Activity (percent inhibition class D-F) (activated JNK3; inhibitor concentration not given)
"Cc1cnc(Nc2ccccc2)nc1-c1sc(SCc2ccc(O)cc2)c(C#N)c1-c1cccc(Cl)c1 [Compound V-1, 4-(3-chloro-phenyl)-2-(4-hydroxy-benzylsulfanyl)-5-(5-methyl-2-phenylamino-pyrimidin-4-yl)-thiophene-3-carbonitrile]",100 to 1000,< 100,,
"CSc1sc(-c2nc(C)cs2)c(C)c1-c1ccnc(Nc2ccccc2)n1 [IIb-1, {4-[4-methyl-2-methylsulfanyl-5-(4-methyl-thiazol-2-yl)-thiophen-3-yl]-pyrimidin-2-yl}-phenylamine]",,,D (Compounds having an activity designated as “D” provided a percent inhibition less than or equal to 24%),D (Compounds having an activity designated as “D” provided a percent inhibition less than or equal to 24%)
